Tests used:
[1] = system: Cotton; assay: (II) surface spray, growth regulatory or herbicidal effects; format: in vivo, Gossypium sp.; settings: 21 days, 100=complete suppression
Excerpt: (§1) (II) An aqueous suspension together with 1000 ppm of the wetting agent Lissapol NX. The surfaces of an additional set of pans with seeds already sown were then sprayed with 2.8 or 1.4 kg/ha in 450 liters/hectare, and the pans kept in the controlled environment room for 21 days.
(§2) The plants were then visually assessed for any growth regulatory or herbicidal effects. All differences from an untreated control were scored on a scale from 0-100, where 0 signifies no effect and 100 signifies complete suppression.
(§3) The results are shown in the following table where I stands for soil incorporation and II for surface spray.

[2] = system: Tomato; assay: as above; format: in vivo, Lycopersicon esculentum; settings: 21 days, 100=complete suppression
Excerpt: as §1, §2, §3

[3] = system: Wheat; assay: as above; format: in vivo, Triticum aestivum; settings: 21 days, 100=complete suppression
Excerpt: as §1, §2, §3

[4] = system: Barley; assay: as above; format: in vivo, Hordeum vulgare; settings: 21 days, 100=complete suppression
Excerpt: as §1, §2, §3

[5] = system: Barnyard Grass; assay: as above; format: in vivo, Echinochloa crus-galli; settings: II surface spray 1.4 kg/ha (line 3.25 ppm), 21 days, 100=complete suppression
Excerpt: as §1, §2, §3

[6] = system: Rice; assay: as above; format: in vivo, Oryza sativa; settings: 21 days, 100=complete suppression
Excerpt: as §1, §2, §3

[7] = system: Carrot; assay: as above; format: in vivo, Daucus carota; settings: 21 days, 100=complete suppression
Excerpt: as §1, §2, §3

[8] = system: Chickweed; assay: (I) soil incorporation, growth regulatory or herbicidal effects; format: in vivo, Stellaria media; settings: I soil incorporation 6.5 ppm, 21 days, 100=complete suppression
Excerpt: (§4) (I) an attaclay/sand dust and incorporated in John Innes I potting compost at a rate equivalent to 6.5 and 3.25 parts per million weight/volume of active ingredient to soil and placed in anodised aluminium pans, 19 cm long×9.5 cm wide×5.0 cm high. This is approximately equivalent to a surface application of 2.8 and 1.4 kg active ingredient per hectare cultivated to a depth of 5 cm. Seeds of the species listed below were sown in the treated soil, one species per pan, watered and placed in a controlled environment room (22° C.; 65-85% relative humidity and 14 hours artificial illumination at 17000 lux) for 21 days.
as §2, §3

[9] = system: Fathen; assay: as above; format: in vivo, Chenopodium album; settings: I soil incorporation 6.5 ppm, 21 days, 100=complete suppression
Excerpt: as §4, §2, §3

[10] = system: Xanthomonas malvacearum; assay: bacteriostatic test in dextrose nutrient broth; format: cell-based; settings: 1,000 and 200 ppm weight/volume; 8 days at 25° C.
Experimental: A 1% suspension/solution of the product of Example 157 in polyethylene glycol (Carbowax 400) was added to a dextrose nutrient broth to give a concentration of 1,000 parts per million (ppm) weight/volume of medium. Dilution in test tubes was then carried out to give a concentration of 200 ppm weight/volume of medium. To 8 ml quantities of broth was added 0.2 ml of a dense broth culture of the bacterium causing black arm of cotton, Xanthomonas malvacearum. After 8 days incubation at 25° C., all the broth specimens were examined for signs of bacterial growth.

[11] = system: acetylcholinesterase; assay: standard test indicative of insecticidal activity, inhibition of acetylcholinesterase; format: biochemical; settings: 100 micromolar
[12] = II surface spray 1.4 kg/ha (line 3.25 ppm)
[13] = II surface spray 2.8 kg/ha (line 6.5 ppm)

Structure (SMILES) | growth regulatory or herbicidal effect score [1, 12] | growth regulatory or herbicidal effect score [1, 13] | growth regulatory or herbicidal effect score [2, 12] | growth regulatory or herbicidal effect score [2, 13] | growth regulatory or herbicidal effect score [3, 12] | growth regulatory or herbicidal effect score [3, 13] | growth regulatory or herbicidal effect score [4, 12] | growth regulatory or herbicidal effect score [4, 13] | growth regulatory or herbicidal effect score [5] | growth regulatory or herbicidal effect score [6, 12] | growth regulatory or herbicidal effect score [6, 13] | growth regulatory or herbicidal effect score [7, 12] | growth regulatory or herbicidal effect score [7, 13] | growth regulatory or herbicidal effect score [8] | growth regulatory or herbicidal effect score [9] | bacterial growth [10] | inhibition of acetylcholinesterase [11] [%]
CS(=O)(=O)N(CC(N)=S)c1ccc(Cl)c(Cl)c1 [Example 85, N-(thiocarbamoylmethyl)-3,4-dichloromethanesulphonanilide] | 0 | 0 | 0 | 0 | 0 | 0 | 0 | 0 | 90 | 0 | 0 | 0 | 0 | – | – | – | –
CCOC(=O)C(CC)N(c1c(C)cccc1C)S(C)(=O)=O (centres unmarked) [Example 95] | – | – | – | – | – | – | – | – | – | – | – | – | – | 90 | 100 | – | –
Cc1ccc(N(CC#N)S(C)(=O)=O)cc1Cl [Example 131] | 0 | 0 | 0 | 0 | 0 | 0 | 0 | 0 | – | 0 | 0 | 0 | 0 | – | – | – | –
CCS(=O)(=O)N(CC#N)c1ccc(Cl)c(Cl)c1 [Example 137] | 0 | 0 | 0 | 0 | 0 | 0 | 0 | 0 | 90 | 0 | 0 | 0 | 0 | – | – | – | –
Cc1ccc(N(CC(N)=S)S(C)(=O)=O)cc1Cl [Example 150] | 0 | 0 | 0 | 0 | 0 | 0 | 0 | 0 | – | 0 | 0 | – | – | – | – | – | –
CCS(=O)(=O)N(CC(N)=S)c1ccc(Cl)c(Cl)c1 [Example 156] | 0 | 0 | 0 | 0 | 0 | 0 | 0 | 0 | – | 0 | 0 | – | – | – | – | – | –
CS(=O)(=O)N(CC(N)=S)c1cccc(Cl)c1Cl [Example 157] | – | – | – | – | – | – | – | – | – | – | – | – | – | – | – | No growth | –
CNC(=O)ON=C(C)CN(c1c(C)cccc1C)S(C)(=O)=O [Example 248, N-[2-(methylcarbamoyloxyimino)propyl]-2',6'-dimethylmethanesulphonanilide] | – | – | – | – | – | – | – | – | – | – | – | – | – | – | – | – | 30
